Data as given in ChEMBL document CHEMBL1153983, “Anti-HBV agents. Part 2: synthesis and in vitro anti-hepatitis B virus activities of alisol A derivatives” (Bioorg Med Chem Lett, 2009).

Assays:
[1] = Cytotoxicity against human HepG2(2.2.15) cells; format: cell-based
Hepatitis B virus [2] = test: Antiviral activity against HBV assessed as inhibition of viral surface antigen secretion; format: functional, organism-based
[3] = Selectivity index, ratio of CC50 for human HepG2(2.2.15) cells to IC50 for HBV surface antigen secretion; format: functional
Hepatitis B virus [4] = test: Antiviral activity against HBV assessed as inhibition of viral early antigen secretion; format: functional, organism-based
[5] = Selectivity index, ratio of CC50 for human HepG2(2.2.15) cells to IC50 for HBV early antigen secretion; format: functional

| SMILES | IC50 (Hepatitis B virus [2]) [µM] | IC50 (Hepatitis B virus [4]) [µM] | CC50 [1] [µM] | Ratio CC50/IC50 [3] | Ratio CC50/IC50 [5] |
| --- | --- | --- | --- | --- | --- |
| C[C@H](C[C@H](OC(=O)CN1C(=O)c2ccccc2C1=O)[C@@H](OC(=O)CN1C(=O)c2ccccc2C1=O)C(C)(C)O)C1=C2C[C@H](OC(=O)CN3C(=O)c4ccccc4C3=O)[C@H]3[C@@]4(C)CCC(=O)C(C)(C)[C@@H]4CC[C@]3(C)[C@@]2(C)CC1 | 1200 | 140 | > 1500 | >1.2 | >11 |
| CC(=O)OCC(=O)O[C@@H](C[C@@H](C)C1=C2C[C@H](OC(=O)COC(C)=O)[C@H]3[C@@]4(C)CCC(=O)C(C)(C)[C@@H]4CC[C@]3(C)[C@@]2(C)CC1)[C@@H](OC(=O)COC(C)=O)C(C)(C)O | < 38 | > 51 | 51 | >1.3 | <1 |
| C[C@H](C[C@H](OC(=O)CNC(=O)OC(C)(C)C)[C@@H](OC(=O)CNC(=O)OC(C)(C)C)C(C)(C)O)C1=C2C[C@H](OC(=O)CNC(=O)OC(C)(C)C)[C@H]3[C@@]4(C)CCC(=O)C(C)(C)[C@@H]4CC[C@]3(C)[C@@]2(C)CC1 | 320 | 94 | > 1500 | >4.7 | >16 |
| Nc1ccn([C@@H]2CS[C@H](CO)O2)c(=O)n1 [LAMIVUDINE] | 18000 | 38000 | 31000 | 1.7 | 0.82 |
| C=C(C)[C@H](OC(=O)COCC)[C@H](C[C@@H](C)C1=C2C[C@H](OC(=O)COCC)[C@H]3[C@@]4(C)CCC(=O)C(C)(C)[C@@H]4CC[C@]3(C)[C@@]2(C)CC1)OC(=O)COCC | 20 | 30 | > 1200 | >60 | >40 |
| COCC(=O)O[C@@H](C[C@@H](C)C1=C2C[C@H](OC(=O)COC)[C@H]3[C@@]4(C)CCC(=O)C(C)(C)[C@@H]4CC[C@]3(C)[C@@]2(C)CC1)[C@@H](OC(=O)COC)C(C)(C)O | 140 | > 400 | 400 | 2.9 | – |
| CCOCC(=O)O[C@@H](C[C@@H](C)C1=C2C[C@H](OC(=O)COCC)[C@H]3[C@@]4(C)CCC(=O)C(C)(C)[C@@H]4CC[C@]3(C)[C@@]2(C)CC1)[C@@H](OC(=O)COCC)C(C)(C)OC(=O)COCC | 200 | 260 | > 2300 | >11 | >8.7 |
| C[C@H](C[C@H](OC(=O)/C=C/c1ccccc1Cl)[C@@H](OC(=O)/C=C/c1ccccc1Cl)C(C)(C)O)C1=C2C[C@H](OC(=O)/C=C/c3ccccc3Cl)[C@H]3[C@@]4(C)CCC(=O)C(C)(C)[C@@H]4CC[C@]3(C)[C@@]2(C)CC1 | 950 | > 1300 | > 1300 | >1.3 | – |
| C[C@H](C[C@H](OC(=O)c1ccc(Br)cc1)[C@@H](OC(=O)c1ccc(Br)cc1)C(C)(C)O)C1=C2C[C@H](OC(=O)c3ccc(Br)cc3)[C@H]3[C@@]4(C)CCC(=O)C(C)(C)[C@@H]4CC[C@]3(C)[C@@]2(C)CC1 | > 650 | > 650 | 650 | <1 | <1 |
| COCC(=O)O[C@@H](C[C@@H](C)C1=C2C[C@H](OC(=O)COC)[C@H]3[C@@]4(C)CCC(=O)C(C)(C)[C@@H]4CC[C@]3(C)[C@@]2(C)CC1)[C@@H](OC(=O)COC)C(C)(C)OC(=O)COC | 28 | 27 | > 2500 | >90 | >93 |
| C[C@H](C[C@H](OC(=O)CCOc1ccccc1)[C@@H](OC(=O)CCOc1ccccc1)C(C)(C)O)C1=C2C[C@H](OC(=O)CCOc3ccccc3)[C@H]3[C@@]4(C)CCC(=O)C(C)(C)[C@@H]4CC[C@]3(C)[C@@]2(C)CC1 | > 950 | > 950 | > 950 | – | – |
| C[C@H](C[C@H](OC(=O)CC(C)(C)C)[C@@H](OC(=O)CC(C)(C)C)C(C)(C)O)C1=C2C[C@H](OC(=O)CC(C)(C)C)[C@H]3[C@@]4(C)CCC(=O)C(C)(C)[C@@H]4CC[C@]3(C)[C@@]2(C)CC1 | > 1200 | > 1200 | > 1200 | – | – |
| COCC(=O)O[C@@H](C[C@@H](C)[C@]12CC[C@@]3(C)[C@@]1(C[C@H](OC(=O)COC)[C@H]1[C@@]4(C)CCC(=O)C(C)(C)[C@@H]4CC[C@@]13C)O2)[C@@H](OC(=O)COC)C(C)(C)OC(=O)COC | 110 | > 1600 | > 800 | >7.3 | – |
| C=C(C)[C@H](OC(=O)COC)[C@H](C[C@@H](C)[C@]12CC[C@@]3(C)[C@@]1(C[C@H](OC(=O)COC)[C@H]1[C@@]4(C)CCC(=O)C(C)(C)[C@@H]4CC[C@@]13C)O2)OC(=O)COC | 44 | > 1300 | > 1300 | >29 | – |
| C=C(C)[C@H](OC(=O)COCC)[C@H](C[C@@H](C)[C@]12CC[C@@]3(C)[C@@]1(C[C@H](OC(=O)COCC)[C@H]1[C@@]4(C)CCC(=O)C(C)(C)[C@@H]4CC[C@@]13C)O2)OC(=O)COCC | 20 | > 1800 | > 1800 | >90 | – |
| C[C@H](C[C@H](OC(=O)c1ccc(Cl)cc1)[C@@H](OC(=O)c1ccc(Cl)cc1)C(C)(C)O)C1=C2C[C@H](OC(=O)c3ccc(Cl)cc3)[C@H]3[C@@]4(C)CCC(=O)C(C)(C)[C@@H]4CC[C@]3(C)[C@@]2(C)CC1 | > 900 | > 900 | > 900 | – | – |
| CC(=O)OCC(=O)O[C@@H](C[C@@H](C)[C@]12CC[C@@]3(C)[C@@]1(C[C@H](OC(=O)COC(C)=O)[C@H]1[C@@]4(C)CCC(=O)C(C)(C)[C@@H]4CC[C@@]13C)O2)[C@@H](OC(=O)COC(C)=O)C(C)(C)O | 120 | > 250 | 250 | 2.1 | <1 |

The next lines start with results.

| IC50 (Hepatitis B virus [2]) [µM] | IC50 (Hepatitis B virus [4]) [µM] | SMILES | CC50 [1] [µM] | Ratio CC50/IC50 [3] | Ratio CC50/IC50 [5] |
| --- | --- | --- | --- | --- | --- |
| 68 | 120 | C=C(C)[C@H](OC(=O)COC)[C@H](C[C@@H](C)C1=C2C[C@H](OC(=O)COC)[C@H]3[C@@]4(C)CCC(=O)C(C)(C)[C@@H]4CC[C@]3(C)[C@@]2(C)CC1)OC(=O)COC | > 2800 | >42 | >24 |
| 130 | > 250 | CCOCC(=O)O[C@@H](C[C@@H](C)[C@]12CC[C@@]3(C)[C@@]1(C[C@H](OC(=O)COCC)[C@H]1[C@@]4(C)CCC(=O)C(C)(C)[C@@H]4CC[C@@]13C)O2)[C@@H](OC(=O)COCC)C(C)(C)O | 250 | 1.9 | <1 |
| 400 | 2000 | CCOCC(=O)O[C@@H](C[C@@H](C)C1=C2C[C@H](OC(=O)COCC)[C@H]3[C@@]4(C)CCC(=O)C(C)(C)[C@@H]4CC[C@]3(C)[C@@]2(C)CC1)[C@@H](OC(=O)COCC)C(C)(C)O | > 2600 | >6.5 | >1.3 |
| 51 | > 1600 | C=C(C)[C@H](OC(=O)COC(C)=O)[C@H](C[C@@H](C)[C@]12CC[C@@]3(C)[C@@]1(C[C@H](OC(=O)COC(C)=O)[C@H]1[C@@]4(C)CCC(=O)C(C)(C)[C@@H]4CC[C@@]13C)O2)OC(=O)COC(C)=O | > 1600 | >31 | – |
| > 810 | > 810 | C[C@H](C[C@H](OC(=O)CCC1CCCCC1)[C@@H](OC(=O)CCC1CCCCC1)C(C)(C)O)C1=C2C[C@H](OC(=O)CCC3CCCCC3)[C@H]3[C@@]4(C)CCC(=O)C(C)(C)[C@@H]4CC[C@]3(C)[C@@]2(C)CC1 | > 810 | – | – |
| 250 | 320 | CCOCC(=O)O[C@@H](C[C@@H](C)[C@]12CC[C@@]3(C)[C@@]1(C[C@H](OC(=O)COCC)[C@H]1[C@@]4(C)CCC(=O)C(C)(C)[C@@H]4CC[C@@]13C)O2)[C@@H](OC(=O)COCC)C(C)(C)OC(=O)COCC | > 1400 | >5.6 | >4.4 |
| 900 | > 1100 | COCC(=O)O[C@@H](C[C@@H](C)[C@]12CC[C@@]3(C)[C@@]1(C[C@H](OC(=O)COC)[C@H]1[C@@]4(C)CCC(=O)C(C)(C)[C@@H]4CC[C@@]13C)O2)[C@@H](OC(=O)COC)C(C)(C)O | 1100 | 1.2 | <1 |
| > 1000 | > 1000 | C[C@H](C[C@H](OC(=O)C1CC1)[C@@H](OC(=O)C1CC1)C(C)(C)O)C1=C2C[C@H](OC(=O)C3CC3)[C@H]3[C@@]4(C)CCC(=O)C(C)(C)[C@@H]4CC[C@]3(C)[C@@]2(C)CC1 | > 1000 | – | – |
| 290 | 880 | CC(=O)NCC(=O)O[C@@H](C[C@@H](C)C1=C2C[C@H](OC(=O)CNC(C)=O)[C@H]3[C@@]4(C)CCC(=O)C(C)(C)[C@@H]4CC[C@]3(C)[C@@]2(C)CC1)[C@@H](OC(=O)CNC(C)=O)C(C)(C)O | 270 | <1 | <1 |
| < 32 | < 32 | C=C(C)[C@H](OC(=O)COC(C)=O)[C@H](C[C@@H](C)C1=C2C[C@H](OC(=O)COC(C)=O)[C@H]3[C@@]4(C)CCC(=O)C(C)(C)[C@@H]4CC[C@]3(C)[C@@]2(C)CC1)OC(=O)COC(C)=O | < 30 | – | – |
| > 800 | > 800 | C[C@H](C[C@H](OC(=O)C1CCCCC1)[C@@H](OC(=O)C1CCCCC1)C(C)(C)O)C1=C2C[C@H](OC(=O)C3CCCCC3)[C@H]3[C@@]4(C)CCC(=O)C(C)(C)[C@@H]4CC[C@]3(C)[C@@]2(C)CC1 | > 800 | – | – |
| > 1200 | > 1200 | C[C@H](C[C@H](OC(=O)c1ccc(Cl)cc1Cl)[C@@H](OC(=O)c1ccc(Cl)cc1Cl)C(C)(C)O)C1=C2C[C@H](OC(=O)c3ccc(Cl)cc3Cl)[C@H]3[C@@]4(C)CCC(=O)C(C)(C)[C@@H]4CC[C@]3(C)[C@@]2(C)CC1 | > 1200 | – | – |
